Reference: patent publication US7371841B2, “Methods of modulating cold sensory perception” (Regents of the University of California, priority 2002, dated 2008)
Like-named read-outs stand apart in the source and are kept apart here.

Experiments:
CMR1 [1] = biological target: T1, CMR1 (Rattus norvegicus, UniProt Q8R455, N449H); assay: Two-electrode voltage-clamp of Xenopus oocytes expressing the cloned cold/menthol receptor; assay type: cell-based; design: open reading frame of 3312 bp that is predicted to encode a protein of 1104 amino acids; expressed in transfected cells; host or cells: Xenopus laevis oocytes (cRNA injection); conditions: for EC50: room temperature, voltage clamp at -60 mV; for electrophysiological response of receptor-expressing oocytes: menthone, camphor, cyclohexanol applied near limits of solubility (>500 μM)
T1 sequence (Q8R455 whole entry N449H): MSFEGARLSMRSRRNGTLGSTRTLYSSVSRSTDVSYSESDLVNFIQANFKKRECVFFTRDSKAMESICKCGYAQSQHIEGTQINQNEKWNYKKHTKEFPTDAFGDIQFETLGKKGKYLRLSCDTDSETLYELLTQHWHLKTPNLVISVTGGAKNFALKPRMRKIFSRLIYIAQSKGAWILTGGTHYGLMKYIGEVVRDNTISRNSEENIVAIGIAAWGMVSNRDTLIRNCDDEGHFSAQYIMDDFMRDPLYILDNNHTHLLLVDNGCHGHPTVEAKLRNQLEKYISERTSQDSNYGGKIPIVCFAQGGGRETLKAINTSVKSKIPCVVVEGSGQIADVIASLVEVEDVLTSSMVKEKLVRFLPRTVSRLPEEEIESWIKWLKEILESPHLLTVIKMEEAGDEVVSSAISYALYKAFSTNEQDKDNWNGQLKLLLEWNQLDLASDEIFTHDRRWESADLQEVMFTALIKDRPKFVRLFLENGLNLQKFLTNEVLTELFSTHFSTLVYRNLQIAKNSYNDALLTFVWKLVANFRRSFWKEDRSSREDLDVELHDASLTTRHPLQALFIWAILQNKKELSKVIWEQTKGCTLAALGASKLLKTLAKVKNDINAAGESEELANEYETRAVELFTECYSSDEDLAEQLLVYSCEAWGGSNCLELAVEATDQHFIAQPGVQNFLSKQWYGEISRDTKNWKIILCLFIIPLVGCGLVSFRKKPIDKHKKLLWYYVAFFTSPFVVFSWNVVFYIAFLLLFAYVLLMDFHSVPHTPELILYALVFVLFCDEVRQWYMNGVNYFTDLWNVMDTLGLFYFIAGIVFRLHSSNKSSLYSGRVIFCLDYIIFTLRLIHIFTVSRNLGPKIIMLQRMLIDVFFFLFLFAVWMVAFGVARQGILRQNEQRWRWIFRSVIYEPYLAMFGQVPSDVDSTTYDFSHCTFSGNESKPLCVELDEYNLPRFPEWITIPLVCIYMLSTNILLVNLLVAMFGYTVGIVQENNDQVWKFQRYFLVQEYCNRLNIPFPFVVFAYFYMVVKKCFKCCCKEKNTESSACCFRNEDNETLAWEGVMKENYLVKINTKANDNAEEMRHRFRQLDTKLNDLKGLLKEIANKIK
Protocol: cRNA transcripts were synthesized and injected into Xenopus laevis oocytes as described (Brake, supra). Two-electrode voltage-clamp recordings were performed 2-7 days post-injection. Dose-response curves for cooling compounds were performed at room temperature (22-24° C.). AG-3-5 (icilin) was provided by Dr. E. Wei, University of California, Berkeley. Temperature ramps were generated by heating (˜35° C.) or cooling (˜4° C.) the perfusate in a Harvard coil and monitoring temperature changes with a thermister placed near the oocyte.

trigeminal neurons [2] = assay: Calcium imaging (Fura-2) of dissociated trigeminal neurons; assay type: cell-based, rat; conditions: capsaicin 1 μM
Protocol: Trigeminal ganglia were removed from newborn S/D rats, placed in ice-cold culture medium (MEM Eagle's with Earle's BSS supplemented with 10% horse serum, vitamins, penicillin/streptomycin and L-glutamine), cleaned of connective tissue/blood vessels and diced into 4-5 pieces. Ganglia were then transferred to 0.125% collagenase P (Boehringer) solution in CMF Hank's, shaken gently at 37° C. for 20 (P0 animals) to 30 min (P4 animals), pelleted, and resuspended in 0.05% STV at 37° C. for 2 min. Culture medium was added to inhibit enzymatic activity and ganglia were triturated gently with a fire-polished Pasteur pipette. Neurons were enriched by density gradient centrifugation as described (see, e.g., Eckert et al., J. Neurosci. Methods 77:183-90, 1997). […]

trigeminal neurons [3] = assay: Whole-cell patch-clamp recordings of dissociated trigeminal neurons; assay type: cell-based, rat; conditions: for membrane currents elicited in trigeminal neurons: compared to an equivalent dose of menthol
Protocol: Trigeminal ganglia were removed from newborn S/D rats, placed in ice-cold culture medium (MEM Eagle's with Earle's BSS supplemented with 10% horse serum, vitamins, penicillin/streptomycin and L-glutamine), cleaned of connective tissue/blood vessels and diced into 4-5 pieces. Ganglia were then transferred to 0.125% collagenase P (Boehringer) solution in CMF Hank's, shaken gently at 37° C. for 20 (P0 animals) to 30 min (P4 animals), pelleted, and resuspended in 0.05% STV at 37° C. for 2 min. Culture medium was added to inhibit enzymatic activity and ganglia were triturated gently with a fire-polished Pasteur pipette. Neurons were enriched by density gradient centrifugation as described (see, e.g., Eckert et al., J. Neurosci. Methods 77:183-90, 1997). Cells were resuspended in complete culture medium (MEM Eagle's/Earle's BSS with 10% horse serum, vitamins, penicillin/streptomycin, L-glutamine and 100 ng/ml NGF 7S (Invitrogen) and plated onto glass coverslips coated with PLO (1 mg/ml, Sigma) and laminin (5 μg/ml, Invitrogen). Cultures were maintained at 37° C. in 5% CO2 and examined 1-2 days after plating. Ca^2+ microfluorimetry was carried out as described (Caterina et al., Nature 389:816-24 (1997)). For cell selection prior to patch-clamp analysis, CaCl2 and pluronic acid were omitted from the loading buffer (nominally Ca^2+-free CIB). Cells in the recording chamber were perfused by gravity using the VC-6 valve control system (Warner Inst.).
Trigeminal neurons responding to […] menthol with an increase in intracellular Ca2+ were selected for patch-clamp recordings. HEK293 cells were cultured in DMEM with 10% fetal bovine serum and co-transfected (Lipofectamine 2000, Invitrogen) with 1 μg CMR1 plasmid and 0.1 μg enhanced green fluorescence reporter plasmid to identify transfected cells. Cells were plated onto PLO-coated coverslips the next day and examined two days after transfection. Gigaseals were formed with pipettes (Garner Glass type 7052, ID 1.1, OD 1.5) having a resistance of 3-5 MΩ in standard pipette solution. Whole-cell voltage clamp was performed at a holding potential of −60 mV with a 200 ms voltage ramp from −120 mV to +80 mV at 3.6 Hz. Data were acquired using Pulse-Pulsefit (HEKA GmbH) software. Recordings were filtered at 5 kHz and sampled at 20 kHz. Pipette solution for neuronal experiments contained (in mM) 140 CsCl, 1 EGTA, 0.6 MgCl2, 10 HEPES, pH 7.4 (adjusted with CsOH). Standard Ca^2+-free bath solution for whole-cell recordings contained (in mM) 140 NaCl, 4 KCl, 2 MgCl2, 100 nM TTX (Sigma), 10 TRIS, pH 7.4 (adjusted with HCl) with or without 100 nM dendrotoxin I (Sigma). For ion replacement experiments, pipette solution contained (in mM) 140 KCl, 5 CsCl, 1 EGTA, 0.6 MgCl2, 1 4-aminopyridine, 10 HEPES, pH 7.4 (adjusted with KOH). Bath solution contained (in mM) 140 NaCl, 4 KCl, 2 MgCl2, 100 nM TTX, 100 nM dendrotoxin I, 100 nM apamine (Sigma), 100 nM carybdotoxin (Sigma), 1 μω-conotoxin MVIIC, 1 μM GVIA (Latoxan), 10 TRIS, pH 7.4 (adjusted with HCl). For monovalent cation permeability experiments perfusate contained (in mM) 140 NaCl (or 140 KCl or 140 NMDG), 100 nM TTX, 1 μM nitrendipine (Sigma), 10 HEPES, 10 glucose, pH 7.4 (adjusted with NaOH, KOH or HCl, respectively). For divalent cation permeability experiments perfusate contained (in mM) 125 NMDG, 10 CaCl2, 100 nM TTX, 1 μM nitrendipine, 10 HEPES, 10 glucose, pH 7.4 (adjusted with HCl). […]

CMR1 [4] = biological target: T1, CMR1; assay: Whole-cell patch-clamp of CMR1-transfected HEK293 cells; assay type: cell-based; design: open reading frame of 3312 bp that is predicted to encode a protein of 1104 amino acids; expressed in transfected cells
Protocol: Trigeminal neurons responding to […] menthol with an increase in intracellular Ca2+ were selected for patch-clamp recordings. HEK293 cells were cultured in DMEM with 10% fetal bovine serum and co-transfected (Lipofectamine 2000, Invitrogen) with 1 μg CMR1 plasmid and 0.1 μg enhanced green fluorescence reporter plasmid to identify transfected cells. Cells were plated onto PLO-coated coverslips the next day and examined two days after transfection. Gigaseals were formed with pipettes (Garner Glass type 7052, ID 1.1, OD 1.5) having a resistance of 3-5 MΩ in standard pipette solution. Whole-cell voltage clamp was performed at a holding potential of −60 mV with a 200 ms voltage ramp from −120 mV to +80 mV at 3.6 Hz. Data were acquired using Pulse-Pulsefit (HEKA GmbH) software. Recordings were filtered at 5 kHz and sampled at 20 kHz. Pipette solution for neuronal experiments contained (in mM) 140 CsCl, 1 EGTA, 0.6 MgCl2, 10 HEPES, pH 7.4 (adjusted with CsOH). Standard Ca^2+-free bath solution for whole-cell recordings contained (in mM) 140 NaCl, 4 KCl, 2 MgCl2, 100 nM TTX (Sigma), 10 TRIS, pH 7.4 (adjusted with HCl) with or without 100 nM dendrotoxin I (Sigma). For ion replacement experiments, pipette solution contained (in mM) 140 KCl, 5 CsCl, 1 EGTA, 0.6 MgCl2, 1 4-aminopyridine, 10 HEPES, pH 7.4 (adjusted with KOH). Bath solution contained (in mM) 140 NaCl, 4 KCl, 2 MgCl2, 100 nM TTX, 100 nM dendrotoxin I, 100 nM apamine (Sigma), 100 nM carybdotoxin (Sigma), 1 μω-conotoxin MVIIC, 1 μM GVIA (Latoxan), 10 TRIS, pH 7.4 (adjusted with HCl). For monovalent cation permeability experiments perfusate contained (in mM) 140 NaCl (or 140 KCl or 140 NMDG), 100 nM TTX, 1 μM nitrendipine (Sigma), 10 HEPES, 10 glucose, pH 7.4 (adjusted with NaOH, KOH or HCl, respectively). For divalent cation permeability experiments perfusate contained (in mM) 125 NMDG, 10 CaCl2, 100 nM TTX, 1 μM nitrendipine, 10 HEPES, 10 glucose, pH 7.4 (adjusted with HCl). […] Bath solution for on-cell single channel experiments contained (in mM): 150 NaCl, 1 MgCl2, 10 TRIS. Pipette solution for on-cell single channel experiments contained (in mM): 150 NaCl, 1 MgCl2, 0.1 EGTA, 10 TRIS and 5 or 25 μM menthol. Recordings were performed at 22° C. unless noted otherwise. Temperature ramps were generated by cooling or heating the perfusate in a jacketed coil (Harvard Inst.) connected to a thermostat. Temperature in the proximity of the patched cell was measured using a miniature thermocouple (type MT-29/2, Physitemp) and sampled using an ITC-18 A/D board (Instrutech) and Pulse software. Permeability ratios for monovalent cations to Na (PX/PNa) were calculated according to: PX/PNa=exp(ΔErev(Na-X)F/RT), where ΔErev(Na-X) equals the reversal potential change, F the Faraday's constant, R the universal gas constant and T the absolute temperature. For measurements of Ca^2+ permeability PCa/PNa was calculated according to Lewis, C. A. J. Physiol. 286:417-45, 1979, (equation A6).

[5] = normalized to 500 μM menthol, read-out: EC50 of evoked membrane currents

CC12CCC(CC1)C(C)(C)O2 [Eucalyptol]
EC50 (CMR1 [1]; read-out: potency (EC50) of evoked membrane currents): 3400 ± 400 µM

CC12CCC(CC1=O)C2(C)C (stereo not shown) [camphor]
electrophysiological response of receptor-expressing oocytes (CMR1 [1]): little or no effect

COc1cc(CNC(=O)CCCC/C=C/C(C)C)ccc1O [capsaicin]
fraction of menthol/cold-sensitive neurons also activated (trigeminal neurons [2]): 54.5±6.1% | electrophysiological response of receptor-expressing oocytes (CMR1 [1]): did not elicit responses

OC1CCCCC1 [cyclohexanol]
membrane currents elicited in trigeminal neurons (trigeminal neurons [3]): no effect

O=C1NC(c2cccc([N+](=O)[O-])c2)=CCN1c1ccccc1O [icilin]
desensitization of evoked currents relative to peak currents (CMR1 [4]; 20 s after application, n=3): 78.8±17% | activity in the absence of extracellular calcium (CMR1 [4]; no extracellular calcium): essentially inactive | efficacy compared to menthol (CMR1 [1]): ~2.5 fold | electrophysiological response of receptor-expressing oocytes (CMR1 [1]): Robust responses | potency relative to menthol (CMR1 [1]; ratio of EC50 values): ~200 fold | EC50 (CMR1 [1]; [5]): 0.36 ± 0.03 µM

CC1CCC(C(C)C)C(O)C1 (stereo not shown) [menthol]
thermal threshold of cold-evoked currents in the presence of the compound (trigeminal neurons [3]; 10 μM menthol, threshold without menthol 27.1±0.5° C., n=4): 29.6±0.3 °C | EC50 (trigeminal neurons [3]; Rattus norvegicus, Neuron, room temperature, Vhold=-60 mV, currents normalized to 1 mM menthol, read-out: half-maximal effective concentration (EC50) of evoked inward currents): 80 ± 2.4 µM | Hill coefficient (η) (trigeminal neurons [3]; fit of concentration-response data to the Hill equation): 2.2 | desensitization: decrease in peak current between first and second application (CMR1 [4]; 2.5 mM extracellular Ca2+, n=3): 53.9±1.7% | desensitization: decrease in peak current between first and second application (CMR1 [4]; nominally calcium-free bath solution, n=3): 9.1±7% | effect on cold-evoked currents (CMR1 [4]; sub-activating dose 10 μM menthol): markedly potentiated | electrophysiological response of receptor-expressing oocytes (CMR1 [1]): Robust responses | EC50 (CMR1 [1]; [5]): 66.7 ± 3.3 µM | saturation temperature of cold-activated currents in the presence of the compound (CMR1 [1]; sub-activating menthol (20 mM printed), without menthol 8.2±0.3° C., n=7): 15.6±0.4 °C | threshold temperature of cold-activated currents in the presence of the compound (CMR1 [1]; sub-activating menthol (20 mM printed), without menthol 25.8±0.4° C., n=7): 29.7±0.3 °C

CC(C)[C@@H]1CC[C@@H](C)CC1=O [menthone]
membrane currents elicited in trigeminal neurons (trigeminal neurons [3]): very small currents
